# From patent US20210024542A1 (Torcept Therapeutics, Inc., priority 2018, published 2021)
# Like-named read-outs stand apart in the source and are kept apart here.
# Columns and labels:
# SW579 = test: OncoPanel cell proliferation assay, SW579; type: cell-based, human; conditions: for Relative cell count (%) Mean: SW579
# Description: (§1) Cells were grown in RPMI 1640, 10% FBS, 2 mM L-alanyl-L-glutamine, 1 mM Na pyruvate, or a special medium. Cells were seeded into 384-well plates and incubated in a humidified atmosphere of 5% CO2 at 37° C. Compounds were added the day following cell seeding. At the same time, a time zero untreated cell plate was generated. After a 3-day incubation period, cells were fixed and stained to allow fluorescence imaging of nuclei. Compounds (1 mM stock solutions) were serially diluted in half-log steps from the highest test concentration ([…]), and assayed over 10 concentrations with a maximum assay concentration of 0.1% DMSO. Automated fluorescence microscopy was carried out using a Molecular Devices ImageXpress Micro XL high-content imager, and images were collected with a 4× objective. 16-bit TIFF images were acquired and analyzed with MetaXpress 5.1.0.41 software.
# (§2) Cell proliferation was measured by the fluorescence intensity of an incorporated nuclear dye. The output is referred to as the relative cell count, where the measured nuclear intensity is transformed to percent of control (POC) using the following formula: […]
# (§3) Cellular response parameters were calculated using nonlinear regression to a sigmoidal single-site dose response model:
# (§4) Where y is a response measured at concentration x, A and B are the lower and upper limits of the response, C is the concentration at the response midpoint (EC50), and D is the Hill Slope (Ref. 1).
# (§5) EC50 is the test compound concentration at the curve inflection point or half the effective response (parameter C of the fitted curve solution). GI50 is the concentration needed to reduce the observed growth by half (midway between the curve maximum and the time zero value). “Cell Count Activity Area” is an estimate of the integrated area above the curve (Barretina, et al. The Cancer Cell Line Encyclopedia enables predictive modelling of anticancer drug sensitivity. Nature 483: 603-607). […] In rare instances, values <0 or >10 may be observed. […] Curve-fitting, calculations, and report generation was performed using a custom data reduction engine and MathIQ based software (AIM).
# SCaBER = test: OncoPanel cell proliferation assay, SCaBER; type: cell-based, human
# Description: as §1, §2, §3, §4, §5
# SW684 = test: OncoPanel cell proliferation assay, SW684; type: cell-based, human; conditions: for Relative cell count (%) Mean: SW684
# Description: as §1, with “Cells” for “Cells were grown in RPMI 1640, 10% FBS, 2 mM L-alanyl-L-glutamine, 1 mM Na pyruvate, or a special medium. Cells”
# as §2, §3, §4
# GI50 is the concentration needed to reduce the observed growth by half (midway between the curve maximum and the time zero value). […] In rare instances, values <0 or >10 may be observed. […] Curve-fitting, calculations, and report generation was performed using a custom data reduction engine and MathIQ based software (AIM).
# A431 = test: OncoPanel cell proliferation assay, A431; type: cell-based, human; conditions: for Relative cell count (%) Mean: A431
# Description: as §1, §2, §3, §4, §5
# AsPC-1 = test: OncoPanel cell proliferation assay, AsPC-1; conditions: for Relative cell count (%) Mean: AsPC-1
# Description: Cells were seeded into 384-well plates and incubated in a humidified atmosphere of 5% CO2 at 37° C. Compounds were added the day following cell seeding. At the same time, a time zero untreated cell plate was generated. After a 3-day incubation period, cells were fixed and stained to allow fluorescence imaging of nuclei. Compounds (1 mM stock solutions) were serially diluted in half-log steps from the highest test concentration (1 micromol), and assayed over 10 concentrations with a maximum assay concentration of 0.1% DMSO. Automated fluorescence microscopy was carried out using a Molecular Devices ImageXpress Micro XL high-content imager, and images were collected with a 4× objective. 16-bit TIFF images were acquired and analyzed with MetaXpress 5.1.0.41 software.
# MES-SA = test: OncoPanel cell proliferation assay, MES-SA; type: cell-based, human
# Description: as §1, §2, §3, §4, §5
# [1] = Homo sapiens, 72 h, 3-day incubation, read-out: Cell Count EC50
# [2] = Homo sapiens, 72 h, 3-day incubation, read-out: Cell Count GI50
# [3] = Homo sapiens, 72 h, 3-day incubation, read-out: Cell Count IC50
structure (smiles),measurement,setting,value
"CO[C@H]1C[C@@H]2CC[C@@H](C)[C@@](O)(O2)C(=O)C(=O)N2CCCC[C@H]2C(=O)O[C@H]([C@H](C)C[C@@H]2C[C@@H]3C[C@H]2C[C@H]3O)CC(=O)[C@H](C)/C=C(\C)[C@@H](O)[C@@H](OC)C(=O)[C@H](C)C[C@H](C)/C=C/C=C/C=C/1C [Formula I, 37R-hydroxynorbornylrapamycin]",GI50,"SW579; Homo sapiens, 72 h, SW579, 3-day incubation, read-out: Cell Count GI50",0.152 nM
same,IC50,"SW579; Homo sapiens, 72 h, SW579, 3-day incubation, read-out: Cell Count IC50",0.367 nM
same,Cell Count Activity Area,"SW579; SW579, scale 0-10",5.31
same,Relative cell count (%) Mean,SW579; 1.00E+00 microM,35.3%
same,Relative cell count (%) Mean,SW579; 1.00E−01 microM,35.8%
same,Relative cell count (%) Mean,SW579; 1.00E−02 microM,42.8%
same,Relative cell count (%) Mean,SW579; 1.00E−03 microM,44.2%
same,Relative cell count (%) Mean,SW579; 1.01E−04 microM,63.2%
same,Relative cell count (%) Mean,SW579; 3.16E−01 microM,37.9%
same,Relative cell count (%) Mean,SW579; 3.17E−02 microM,38.4%
same,Relative cell count (%) Mean,SW579; 3.17E−03 microM,44.6%
same,Relative cell count (%) Mean,SW579; 3.18E−04 microM,48.4%
same,Relative cell count (%) Mean,SW579; 3.18E−05 microM,78.0%
same,Relative cell count (%) Mean,SCaBER; 1.00E+00 microM,32.4%
same,Relative cell count (%) Mean,SCaBER; 1.00E−01 microM,36.9%
same,Relative cell count (%) Mean,SCaBER; 1.00E−02 microM,35.4%
same,Relative cell count (%) Mean,SCaBER; 1.00E−03 microM,44.7%
same,Relative cell count (%) Mean,SCaBER; 1.01E−04 microM,61.7%
same,Relative cell count (%) Mean,SCaBER; 3.16E−01 microM,33.0%
same,Relative cell count (%) Mean,SCaBER; 3.17E−02 microM,34.0%
same,Relative cell count (%) Mean,SCaBER; 3.17E−03 microM,38.7%
same,Relative cell count (%) Mean,SCaBER; 3.18E−04 microM,55.4%
same,Relative cell count (%) Mean,SCaBER; 3.18E−05 microM,81.9%
same,EC50,SCaBER; [1],0.0947 nM
same,GI50,SCaBER; [2],0.262 nM
same,IC50,SCaBER; [3],0.451 nM
same,EC50,"SCaBER; Homo sapiens, Table 4 summary, Bladder, read-out: EC50",0.095 nM
same,Cell Count Activity Area,SCaBER; scale 0-10,5.46
same,EC50,"SW684; Homo sapiens, 72 h, SW684, 3-day incubation, read-out: Cell Count EC50",0.477 nM
same,GI50,"SW684; Homo sapiens, 72 h, SW684, 3-day incubation, read-out: Cell Count GI50",0.286 nM
same,IC50,"SW684; Homo sapiens, 72 h, SW684, 3-day incubation, read-out: Cell Count IC50",21.1 nM
same,Cell Count Activity Area,"SW684; SW684, scale 0-10",3.93
same,Relative cell count (%) Mean,SW684; 1.00E+00 microM,44.1%
same,Relative cell count (%) Mean,SW684; 1.00E−01 microM,51.0%
same,Relative cell count (%) Mean,SW684; 1.00E−02 microM,55.0%
same,Relative cell count (%) Mean,SW684; 1.00E−03 microM,68.8%
same,Relative cell count (%) Mean,SW684; 1.01E−04 microM,89.3%
same,Relative cell count (%) Mean,SW684; 3.16E−01 microM,47.1%
same,Relative cell count (%) Mean,SW684; 3.17E−02 microM,52.7%
same,Relative cell count (%) Mean,SW684; 3.17E−03 microM,60.7%
same,Relative cell count (%) Mean,SW684; 3.18E−04 microM,77.8%
same,Relative cell count (%) Mean,SW684; 3.18E−05 microM,91.9%
same,Cell Count Activity Area,"A431; A431, scale 0-10",1.96
same,Relative cell count (%) Mean,A431; 1.00E+00 microM,64.2%
same,Relative cell count (%) Mean,A431; 1.00E−01 microM,72.8%
same,Relative cell count (%) Mean,A431; 1.00E−02 microM,84.2%
same,Relative cell count (%) Mean,A431; 1.00E−03 microM,93.5%
same,Relative cell count (%) Mean,A431; 1.01E−04 microM,101.0%
same,Relative cell count (%) Mean,A431; 3.16E−01 microM,66.5%
same,Relative cell count (%) Mean,A431; 3.17E−02 microM,78.2%
same,Relative cell count (%) Mean,A431; 3.17E−03 microM,84.4%
same,Relative cell count (%) Mean,A431; 3.18E−04 microM,91.9%
same,Relative cell count (%) Mean,A431; 3.18E−05 microM,104.6%
same,EC50,"A431; Homo sapiens, A-431, 72 h, A431, 3-day incubation, read-out: Cell Count EC50",14.3 nM
same,GI50,"A431; Homo sapiens, A-431, 72 h, A431, 3-day incubation, read-out: Cell Count GI50",> 1000 nM
same,IC50,"A431; Homo sapiens, A-431, 72 h, A431, 3-day incubation, read-out: Cell Count IC50",> 1000 nM
same,EC50,"A431; Homo sapiens, A-431, Table 4 summary, A431, Skin, Head/Neck, read-out: EC50",14 nM
same,Cell Count Activity Area,"AsPC-1; AsPC-1, scale 0-10",2.50
same,Relative cell count (%) Mean,AsPC-1; 1.00E+00 microM,64.8%
same,Relative cell count (%) Mean,AsPC-1; 1.00E−01 microM,74.0%
same,Relative cell count (%) Mean,AsPC-1; 1.00E−02 microM,68.9%
same,Relative cell count (%) Mean,AsPC-1; 1.00E−03 microM,81.7%
same,Relative cell count (%) Mean,AsPC-1; 1.01E−04 microM,89.6%
same,Relative cell count (%) Mean,AsPC-1; 3.16E−01 microM,67.9%
same,Relative cell count (%) Mean,AsPC-1; 3.17E−02 microM,74.7%
same,Relative cell count (%) Mean,AsPC-1; 3.17E−03 microM,77.8%
same,Relative cell count (%) Mean,AsPC-1; 3.18E−04 microM,94.5%
same,Relative cell count (%) Mean,AsPC-1; 3.18E−05 microM,99.5%
same,EC50,"AsPC-1; Homo sapiens, ASPC1",0.52 nM
same,EC50,"AsPC-1; Homo sapiens, ASPC1, 72 h, read-out: Cell Count EC50",0.519 nM
same,GI50,"AsPC-1; Homo sapiens, ASPC1, 72 h, read-out: Cell Count GI50",8.07 nM
same,IC50,"AsPC-1; Homo sapiens, ASPC1, 72 h, read-out: Cell Count IC50",> 1000 nM
same,Relative cell count (%) Mean,MES-SA; 1.00E+00 microM,27.9%
same,Relative cell count (%) Mean,MES-SA; 1.00E−01 microM,28.9%
same,Relative cell count (%) Mean,MES-SA; 1.00E−02 microM,32.0%
same,Relative cell count (%) Mean,MES-SA; 1.00E−03 microM,45.0%
same,Relative cell count (%) Mean,MES-SA; 1.01E−04 microM,93.8%
same,Relative cell count (%) Mean,MES-SA; 3.16E−01 microM,26.8%
same,Relative cell count (%) Mean,MES-SA; 3.17E−02 microM,28.6%
same,Relative cell count (%) Mean,MES-SA; 3.17E−03 microM,37.3%
same,Relative cell count (%) Mean,MES-SA; 3.18E−04 microM,64.3%
same,Relative cell count (%) Mean,MES-SA; 3.18E−05 microM,98.1%
same,EC50,MES-SA; [1],0.322 nM
same,GI50,MES-SA; [2],0.495 nM
same,IC50,MES-SA; [3],0.644 nM
same,Cell Count Activity Area,MES-SA; scale 0-10,5.42
